# Values of other authors, collected in patent US10526439B2, “High dielectric breakdown strength resins” (priority 2017, dated 2020).
# Conditions: monomer property, Table IA; species and route not given
row,SMILES,Toxicity LD50 [mg/kg]
1,"C=Cc1ccc(C(C)(C)C)cc1 [Monomer 1, 4-tert butyl styrene]",>2000
2,"C=Cc1ccccc1 [STYRENE, styrene]",>2000
